Consider four compounds from publication PMC9572621, “Fe(III) and Cu(II) Complexes of Chlorogenic Acid: Spectroscopic, Thermal, Anti-/Pro-Oxidant, and Cytotoxic Studies” (Materials, 2022).

≈ marks a conversion by molar mass, not a printed value.

For series [1] the following is noted: radical assay not named at the place (ABTS•+/DPPH• scavenging discussed); read-out: EC50 (antioxidant); cited from earlier work.
Details of series [2]: method as in PMID 15246878. To be noted: read-out: IC50, inhibition of the superoxide-driven reduction of NBT by 50%; flavonoid:metal ion ratio 1:1 for complexes; cited from earlier work.
On the set-up of series [3]: method as in PMID 29401704. To be noted: compound 5 μM; cited from earlier work.
The test system of series [4] is Candida albicans. More on the design: method as in doi:10.15199/62.2017.11.9, PMID 25209896. To be noted: cited from earlier work.
Series [5] has as its system Stenotrophomonas maltophilia. Details: method as in doi:10.15199/62.2017.11.9, PMID 25209896. Conditions: cited from earlier work.
The conditions of series [6]: cited from earlier work.
Series [7] concerns Staphylococcus aureus. Details: method as in doi:10.15199/62.2017.11.9, PMID 26528244, PMID 24228999. To be noted: cited from earlier work.
A short description of series [8]: MTS cell viability assay. Format: cell-based. To be noted: human, HaCaT keratinocyte cells, 1000 nM.

The EC50 is the midpoint of the concentration-response curve. Turning to `O=C1O[C@H]([C@@H](O)CO)C(O)=C1O` [L-ascorbic acid], the EC50 in series [1] is 10.3 ± 0.98 µM.

As usually defined, the IC50 is the concentration at which inhibition is half-maximal. For the compound `C[C@@H]1O[C@@H](OC[C@H]2O[C@@H](Oc3c(-c4ccc(O)c(O)c4)oc4cc(O)cc(O)c4c3=O)[C@H](O)[C@@H](O)[C@@H]2O)[C@H](O)[C@H](O)[C@H]1O` [rutin], the IC50 in series [2] was 9 µM.

Take `O=C(C=Cc1ccc(O)c(O)c1)OC1CC(O)(C(=O)[O-])CC(O)C1O.[Li+]` (stereo not shown) [CQA/Li]: the FRAP activity in series [3] was 106.92 µM Fe^2+.

The MIC is the least concentration at which growth counts as inhibited. As usually defined, the viability is a read-out of living cells in per cent, often relative to untreated cells. On to `O=C(/C=C/c1ccc(O)c(O)c1)O[C@@H]1C[C@](O)(C(=O)O)C[C@@H](O)[C@H]1O` [5-CQA, 5-caffeoylquinic acid], for which the MIC in series [4] was 80 µg/mL (≈ 226 µM). Further, the “activity against Stenotrophomonas maltophilia” value in series [5] is “shows activity”. In addition, in series [6], the “pKa1 (COOH)” value is recorded as 3.35, the pKa2 was 8.30 and the “pKa3 (OH in the meta position)” value is 12.06. In addition, the MIC in series [7] is given as 500 µg/mL (≈ 1410 µM). Further, in series [8], the viability at 24 h, 1 µM is 101 ± 4.5%.
